Laboratory results: paper PMC7318222, “A Family of Water‐Immiscible, Dipolar Aprotic, Diamide Solvents from Succinic Acid” (Chemsuschem, 2020)

Legend:
[1] = system: AP1; test: AP1 CALUX assay (cell cycle control); format: cell-based, human; parameters: key: –: no effect observed up to the highest test concentration; conditions: cell signaling pathway assay, 24 h exposure
From the text: Six of the CALUX assays (TCF through p53) detect activation of several cellular signaling pathways, which are indicative of general stress and acute toxicity, but also a range of more specific types of toxicity, including reproductive toxicity. […]
DCM ≥99.5%, chloroform ≥99.5%, DMSO ≥99.0% were purchased from VWR. […]
(§1) Polyarylethersulfone of 55,000 Da were obtained from INGE.BASF, Germany. The CALUX cell lines have been described previously.[1] They are based on human U2-OS cells (ATCC, HTB-96) stably transfected with an expression construct for the full-length human receptor under investigation, and a reporter construct consisting of multimerized responsive elements for the cognate receptor coupled to a minimal promoter element (TATA) and a luciferase gene. Cells were maintained as described previously,[2] using cell culture media and supplements from Fisher Scientific as described in the experimental procedures section. […]
(§2) In vitro reporter gene assays
(§3) The automated CALUX assays were carried out similarly as described earlier,[12] with some adaptations. In brief, the assay was performed in CO2 independent medium (Fisher Scientific, […]
(§4) supplement (Fisher Scientific, 11574466), 10 U/mL penicillin and 10 µg/mL streptomycin. A cell suspension in assay medium was made of 1 × 10^5cells/mL, and white 384-wells plates were seeded with 30 µl cell suspension/well. After 24 h, exposure medium was prepared. A dilution series in 0.5log unit increments of each test compound (in DMSO) was added to a 96-wells plate containing assay medium (2% v/v). Of this exposure mixture, 30 µl was added to the assay plates containing the CALUX cells, resulting in a final DMSO concentration of 1%. Additionally, DMSO blanks and a full dose response curve of the relevant reference compound were included on each plate. All samples were tested in triplicate. The preparation of the compound dilution series as well as the exposure of the cells were performed on a Hamilton StarLET liquid handling robot coupled to a Cytomat incubator.
(§5) Directly after exposure, plates were sealed with non-breathing plate seals (Plate sealer, easy seal transparent; Greiner-Bio-One, 676001). After 24 h the exposure medium was removed using an EL406 washer-dispenser (BioTek) and 10 µl/well triton lysisbuffer was added by the EL406.
(§6) Subsequently, the luciferase signal was measured in a luminometer (InfinitePro coupled to a Connect Stacker, both TECAN). In order to be able to detect receptor antagonism, several assays were also performed in antagonistic mode. The assay procedure was as described above, with the only exception that the EC50 concentration of the reference agonist was present during the exposure.
The luminometer data was analysed as follows; the average of the triplicate wells was determined, and the average blank (DMSO) value was subtracted. For receptor-based assays the maximum response elicited by the reference compound was set to 100% (full receptor- or pathway activation), and the other values were scaled accordingly. GraphPad Prism was used to fit a sigmoidal curve through the data (four parameters, variable slope). […] For antagonist- and cytotoxicity experiments, PC20 values were determined instead, which was defined as the concentration where the test compound causes a 20% decrease in the basal signal, which was […]
(§7) curve, the signal induction above background (DMSO) was determined, and the concentration where the compound elicited a 1.5-fold increase above background was used as LEC.

[2] = target: T1, PR (Homo sapiens, UniProt P06401); test: PR-anti CALUX reporter gene assay (antagonistic mode); format: cell-based; parameters: key: –: no effect observed up to the highest test concentration; conditions: PC20, 24 h exposure
T1 construct: expression construct for the full-length human receptor under investigation; expressed in transfected cells; host or cells: human U2-OS cells (ATCC HTB-96), stably transfected
T1 sequence (P06401 1-933): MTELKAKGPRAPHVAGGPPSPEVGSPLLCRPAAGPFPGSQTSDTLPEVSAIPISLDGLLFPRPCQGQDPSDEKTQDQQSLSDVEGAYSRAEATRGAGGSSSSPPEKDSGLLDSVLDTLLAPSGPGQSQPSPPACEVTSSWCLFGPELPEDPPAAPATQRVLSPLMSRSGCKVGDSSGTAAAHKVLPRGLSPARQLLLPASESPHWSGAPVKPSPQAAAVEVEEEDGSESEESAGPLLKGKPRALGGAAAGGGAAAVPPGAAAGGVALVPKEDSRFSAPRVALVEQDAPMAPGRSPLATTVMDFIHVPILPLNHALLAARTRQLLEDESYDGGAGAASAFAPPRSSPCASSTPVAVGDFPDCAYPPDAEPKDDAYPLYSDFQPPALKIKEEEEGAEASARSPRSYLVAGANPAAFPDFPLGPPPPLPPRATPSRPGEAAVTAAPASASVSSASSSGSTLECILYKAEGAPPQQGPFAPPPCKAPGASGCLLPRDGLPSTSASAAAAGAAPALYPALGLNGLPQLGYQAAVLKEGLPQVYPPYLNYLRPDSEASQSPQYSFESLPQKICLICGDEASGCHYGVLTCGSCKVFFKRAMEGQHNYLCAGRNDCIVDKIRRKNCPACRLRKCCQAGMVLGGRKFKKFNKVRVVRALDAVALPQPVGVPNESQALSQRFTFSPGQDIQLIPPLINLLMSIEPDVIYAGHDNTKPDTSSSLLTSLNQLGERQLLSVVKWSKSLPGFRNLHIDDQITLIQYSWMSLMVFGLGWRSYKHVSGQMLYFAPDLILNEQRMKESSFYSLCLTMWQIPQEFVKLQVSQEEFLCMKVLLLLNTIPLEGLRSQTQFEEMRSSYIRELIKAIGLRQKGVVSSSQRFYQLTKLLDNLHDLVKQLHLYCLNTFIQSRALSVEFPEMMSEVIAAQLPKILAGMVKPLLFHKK
From the text: as §1, with “99.8% (anhydrous), 4-nitroaniline ≥99.0%, 1-octanol ≥99.0%, diglyme ≥99.0%, DMSO-d6 (99.8% D) and chloroform-d (99.8% D) were purchased from Sigma-Aldrich. Toluene ≥99.0%, hexane ≥99.5%, DCM ≥99.5%, chloroform ≥99.5%, DMSO ≥99.0% were purchased from VWR. N,N-diethyl-4-nitroaniline ≥98.0% was purchased from Alfa Aeser. Cyrene was supplied by Circa group. N-butylpyrrolidinone was supplied by Eastman chemicals. N,N-dimethylformamide 99.9% and N,N-dimethylacetamide 99.9% were purchased from Fischer. The flakes of Ultrason® E3020 P Polyarylethersulfone” for “Polyarylethersulfone”
as §2, §3, §4, §5, §6
The luminometer data was analysed as follows; the average of the triplicate wells was determined, and the average blank (DMSO) value was subtracted. […] For antagonist- and cytotoxicity experiments, PC20 values were determined instead, which was defined as the concentration where the test compound causes a 20% decrease in the basal signal, which was […]
as §7

LEC PR‐anti [2]	SMILES	LEC AP1 [1]
–	CCCCN(CC)C(=O)CCC(=O)N(CC)CCCC [EBSA, N,N′‐diethyl‐N,N′‐dibutylsuccindiamide]	–
–	CCCCN(C)C(=O)CCC(=O)N(C)CCCC [MBSA, N,N′‐dimethyl‐N,N′‐dibutylsuccindiamide]	–
–	CCCCN1CCCC1=O [NBP, N‐Butylpyrrolidinone, reference compound]	–
–	CCCCN(CCCC)C(=O)CCC(=O)N(CCCC)CCCC [TBSA, N,N,N′,N′‐tetrabutylsuccindiamide]	–
–	CN1CCCC1=O [NMP, N‐methyl‐2‐pyrrolidone, reference compound]	−1.5 Log M
